Assay results from paper PMC8252718, “carba Nicotinamide Adenine Dinucleotide Phosphate: Robust Cofactor for Redox Biocatalysis” (Angewandte Chemie (International Ed. in English), 2021).

Assays:
Assay in all cases: activity assay
Format in all cases: biochemical
AspRedAm = target: T1, AspRedAm (Aspergillus oryzae, UniProt Q2TW47); conditions: 100 mM Tris-HCl pH 8.2, 5 mM hexanal, 10 mM amine, 1 mM cofactor, 30 °C
T1 construct: gene AO090010000708; details only in supplement
T1 sequence (Q2TW47 1-295): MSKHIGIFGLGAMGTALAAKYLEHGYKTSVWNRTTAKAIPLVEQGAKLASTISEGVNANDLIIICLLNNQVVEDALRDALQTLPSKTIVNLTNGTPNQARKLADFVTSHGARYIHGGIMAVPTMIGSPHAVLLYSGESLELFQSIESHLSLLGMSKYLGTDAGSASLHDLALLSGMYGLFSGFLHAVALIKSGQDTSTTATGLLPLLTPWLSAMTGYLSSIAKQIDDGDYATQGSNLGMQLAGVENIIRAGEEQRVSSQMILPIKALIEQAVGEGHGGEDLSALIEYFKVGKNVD

TsER = target: T2, TsER (Thermus scotoductus, UniProt B0JDW3)
T2 construct: gene chrR; details only in supplement

CHMO = target: T3, CHMO (Acinetobacter johnsonii, UniProt P12015)
T3 construct: gene chnB; details only in supplement
T3 sequence (P12015 whole entry): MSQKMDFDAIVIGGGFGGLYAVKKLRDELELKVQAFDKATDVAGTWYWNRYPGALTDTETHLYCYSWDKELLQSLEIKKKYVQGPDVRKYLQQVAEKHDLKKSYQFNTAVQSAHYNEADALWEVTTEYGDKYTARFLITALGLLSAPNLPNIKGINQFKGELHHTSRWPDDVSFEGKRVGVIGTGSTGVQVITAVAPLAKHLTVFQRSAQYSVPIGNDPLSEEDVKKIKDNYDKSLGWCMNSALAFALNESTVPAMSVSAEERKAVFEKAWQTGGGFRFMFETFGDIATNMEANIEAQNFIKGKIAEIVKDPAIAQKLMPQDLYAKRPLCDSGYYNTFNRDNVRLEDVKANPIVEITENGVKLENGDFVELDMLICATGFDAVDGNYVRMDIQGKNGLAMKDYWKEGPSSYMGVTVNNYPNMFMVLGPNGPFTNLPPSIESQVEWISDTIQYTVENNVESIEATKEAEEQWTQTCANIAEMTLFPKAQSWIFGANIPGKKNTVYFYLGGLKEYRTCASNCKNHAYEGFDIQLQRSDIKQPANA

NC(=O)C1=CN([C@@H]2C[C@H](COP(=O)(O)OP(=O)(O)OC[C@H]3O[C@@H](n4cnc5c(N)ncnc54)[C@H](OP(=O)(O)O)[C@@H]3O)[C@@H](O)[C@H]2O)C=CC1 [carba-NADPH] was tested, and the activity assay (AspRedAm) was “Both gave comparable results with the natural and carba cofactor”, the activity assay (TsER) was “enoate reductase (TsER from Thermus scotoductus)” and the activity assay (CHMO) was “two Baeyer‐Villiger‐monoxygenases (CHMO and HAPMO)”.
